# Data taken from patent US20040048827A1, “S-adenosylmethionine and derivatives thereof for the treatment and prevention of alzheimer's disease” (priority 2000, published 2004).
# “Also recorded” adds a separate entry of the source.
# What was measured:
# presenilin-1 (PS1) gene = experiment: RT-PCR expression of presenilin-1 gene in SK-N-SH cells; assay type: cell-based, human
# Experimental: (§1) SK-N-SH human neuroblastoma cell line was cultured, respectively, in HAM F14 (14) medium supplemented with 8-% foetal calf serum (GM), in F14 medium supplemented with 1% foetal calf serum and 10 μM retinopic acid (DM) and in DM, in the presence of 100 μM SAM. The cultures were re-fed every second day with the appropriate medium. The times indicate-are referred-to medium change as O-day.
# (§2) Total RNA extraction was carried out using the acidified phenol procedure. For the expression studies by RT-PCR a reverse transcription was performed with 1 μg of total RNA using 50 pmol of oligo-d(T>)16 with 50 units of M-MuLV reverse transcriptase at 42° C. for one hour, followed by heat inactivation at 94° C. for 5 minutes. […] The subsequent amplification reactions were carried out for 20 to 30 cycles (1′ at 94° C., 1′ at annealing temperature, 1′30″ at 72° C.). The use of β-actin as internal standard allowed to control the processing of equal amount samples.
# (§3) Aliquots of the PCR products (15 μl) were examined by electrophoresis in 1.5% agarose gel. Each gel was scanned by a CCD camera and acquired on a computerised densitometer. The specificity of the fragments was assessed by restriction analysis.
# [1] = system: β-amyloid protein precursor (APP) gene; experiment: RT-PCR expression of β-amyloid protein precursor gene in SK-N-SH cells; assay type: cell-based, human
# Experimental: as §1, §2, §3
# β-secretase gene = experiment: RT-PCR expression of β-secretase gene in SK-N-SH cells; assay type: cell-based, human
# Experimental: as §1, §2, §3
# presenilin-2 (PS2) gene = experiment: RT-PCR expression of presenilin-2 gene in SK-N-SH cells; assay type: cell-based, human
# Experimental: as §1, §2, §3
# [2] = system: SK-N-SH human neuroblastoma cells; experiment: HPLC assay of S-adenosylmethionine passage into the cells; assay type: in vitro ADME
# Experimental: as §1
# Cell cultures were rinsed twice with phosphate buffered saline and frozen at −80° C. After thawing cells were scraped into 1 ml of deionized water and sonified for 15 seconds in ice. The macromolecules were precipitated from 1.5 M PCA at 4° C. for 1 hour adjusting the pH at 4-5 with KOH and then centrifuged for 15 minutes at 9000×g. The supernatants were freeze-dried. The HPLC measurements were carried out using a Varian HPLC System. The samples were dissolved in water and injected onto reverse-phase column (C-18) using a water-acetonitrile mobile-phase.
# presenilin-1 protein = experiment: Western blot of presenilin-1 protein in SK-N-SH cells; assay type: cell-based, human; details: DM with 100 μM SAM, 120 hours (5 days) of culture
# Experimental: as §1
# (§4) Detergent lysates were prepared from SK-N-SH cells in the presence of protease inhibitors (leupeptin, pepstatin, PMSF, 5 μg/ml each); protein extracts were performed after 5 days of culture in either GM or DM or DM supplemented with 100 μM SAM.
# (§5) 10 μg of each protein extract were run on 8% PAGE for APP analysis and on 12% PAGE for PS1 analysis, and then blotted on nitrocellulose. APP was detected by a monoclonal antibody 22C11 (Boerhinger Mannheim) recognising three major bands at 116, 110, 106 KD. PS1 was detected by a monoclonal antibody (MAB1563 Chemicon) recognising a 31 KD band.
# APP = experiment: Western blot of APP in SK-N-SH cells; assay type: cell-based, human; details: GM, DM, DM with 100 μM SAM, 120 hours of culture
# Experimental: as §1, §4, §5
# Adam 10 gene = experiment: RT-PCR expression of Adam 10 (α-secretase) gene in SK-N-SH cells; assay type: cell-based, human; details: SAM in DM, 48 and 96 hours of culture (signal apparent only at 48 hours)
# Experimental: as §1, §2, §3
# Adam 17 gene = experiment: RT-PCR expression of Adam 17 (α-secretase) gene in SK-N-SH cells; assay type: cell-based, human; details: SAM in DM, 48 and 96 hours of culture
# Experimental: as §1, §2, §3
# Notch1 gene = experiment: RT-PCR expression of Notch1 gene in SK-N-SH cells; assay type: cell-based, human; details: SAM in DM, 48 and 96 hours of culture
# Experimental: as §1, §2, §3
# 1-40 β-amyloid peptide = experiment: ELISA of 1-40 β-amyloid peptide production in SK-N-SH cell culture supernatants; assay type: cell-based, human; details: SAM in DM vs DM, supernatants after 96 and 120 hours, normalised to cell protein
# Experimental: as §1
# Cell culture supernatants were collected and frozen after 96 and 120 hours from the beginning of the culture. Successively they were concentrated using Amicon micro-concentrators according to the manufacturer instructions. 100 μl of concentrated medium were used to perform the immunoassay employing, according to the manufacturer instructions, the Biosource International kit for the detection of 1-40 amyloid. The amount of β-amyloid was normalised to the concentration of the proteins extracted from the corresponding cell lysates.
# [3] = DM with 100 μM SAM, 96 hours, compared to 96 hours without SAM
# [4] = SK-N-SH cells, administration into the cell culture, RT-PCR
compound,measurement,setting,value
"C[S+](CC[C@H](N)C(=O)O)C[C@H]1O[C@@H](n2cnc3c(N)ncnc32)[C@H](O)[C@@H]1O (stereo partly drawn) [SAM, S-adenosylmethionine]",PS1 gene expression at 48 hours,"presenilin-1 (PS1) gene; DM with 100 μM SAM, 48 hours",accelerate the gene expression
same,PS1 gene expression at 96 hours,presenilin-1 (PS1) gene; [3],markedly down-regulated
same,APP gene expression at 48 hours,"[1]; DM with 100 μM SAM, 48 hours",accelerate the gene expression
same,APP gene expression at 96 hours,[1]; [3],did not increase and resulted inhibited
same,β-secretase gene expression at 48 hours,"β-secretase gene; DM with 100 μM SAM, 48 hours",accelerate the gene expression
same,β-secretase gene expression at 96 hours,β-secretase gene; [3],did not increase and resulted inhibited
same,PS2 gene expression at 48 hours,"presenilin-2 (PS2) gene; DM with 100 μM SAM, 48 hours",accelerate the gene expression
same,PS2 gene expression at 96 hours,presenilin-2 (PS2) gene; [3],did not increase and resulted inhibited
same,SAM in treated cell lysate relative to endogenous SAM,[2],6 fold
same,presenilin-1 protein synthesis (Western blot),presenilin-1 protein,marked reduction
same,APP isoforms level (Western blot),APP,did not change
same,Adam 10 gene expression,Adam 10 gene,the same as that detectable in DM
same,Adam 10 gene expression,Adam 10 gene; listed as S-adenosylmethionine,increased
same,Adam 17 gene expression,Adam 17 gene,over-expression
same,Adam 17 gene expression,Adam 17 gene; listed as S-adenosylmethionine,increased
same,Notch1 gene expression,Notch1 gene,comparable to that observed in GM at 48 hours; also recorded: does not modify
same,Notch1 gene expression,Notch1 gene; listed as S-adenosylmethionine,increased
same,1-40 β-amyloid peptide production,1-40 β-amyloid peptide,reduces the same remarkably
same,1-40 β-amyloid peptide production,1-40 β-amyloid peptide; listed as S-adenosylmethionine,reduced
S-adenosylmethionine disulfonate,presenilin-1 gene expression,presenilin-1 (PS1) gene; [4],remarkable repression
same,β-amyloid protein precursor gene expression,[1]; [4],block of the expression increase
same,β-secretase gene expression,β-secretase gene; [4],block of the expression increase
same,presenilin-2 gene expression,presenilin-2 (PS2) gene; [4],block of the expression increase
same,presenilin-1 protein synthesis (Western blot),presenilin-1 protein,dramatic decrease
